Target: T1, FIEL1/PIAS4 interaction (Homo sapiens, UniProt O15033)
T1 construct: made in house; host or cells: 293T cells (FIEL1)
T1 sequence (O15033 1-789 isoform O15033-2): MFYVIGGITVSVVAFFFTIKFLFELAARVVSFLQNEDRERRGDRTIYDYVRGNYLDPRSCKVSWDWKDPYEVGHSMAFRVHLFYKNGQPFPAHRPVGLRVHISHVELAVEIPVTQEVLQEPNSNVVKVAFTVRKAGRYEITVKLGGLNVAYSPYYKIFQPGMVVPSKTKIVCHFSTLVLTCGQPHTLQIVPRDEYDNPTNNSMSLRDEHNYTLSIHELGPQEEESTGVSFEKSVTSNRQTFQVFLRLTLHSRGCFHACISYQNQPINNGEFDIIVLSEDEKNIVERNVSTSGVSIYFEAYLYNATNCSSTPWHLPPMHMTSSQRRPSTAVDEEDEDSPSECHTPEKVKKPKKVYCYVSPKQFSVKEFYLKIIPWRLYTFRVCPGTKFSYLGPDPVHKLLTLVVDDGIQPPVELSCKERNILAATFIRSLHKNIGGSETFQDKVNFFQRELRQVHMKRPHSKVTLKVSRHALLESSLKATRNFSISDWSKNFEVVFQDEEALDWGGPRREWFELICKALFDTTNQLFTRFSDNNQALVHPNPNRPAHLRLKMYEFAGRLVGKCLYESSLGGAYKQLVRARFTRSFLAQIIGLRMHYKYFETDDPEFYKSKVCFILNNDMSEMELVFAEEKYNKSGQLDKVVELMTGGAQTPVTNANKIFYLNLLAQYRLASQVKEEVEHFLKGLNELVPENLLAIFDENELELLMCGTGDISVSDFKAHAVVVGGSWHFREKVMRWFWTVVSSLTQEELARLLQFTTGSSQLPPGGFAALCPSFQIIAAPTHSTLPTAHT
Experiment: In vitro drug binding assay: PIAS4 pull-down on drug-bound FIEL1 beads
Procedure: FIG. 7A. […] FIG. 7B. Structures of the BC-1480 backbone and lead compound BC-1485. FIG. 7C. FIEL1 protein was HIS-purified from FIEL1 expression in 293T cells using cobalt beads. Beads were then extensively washed prior to exposure to BC-1480 or BC-1485 at different concentrations (10^−4 to 100 μM). Purified PIAS4 protein was then incubated with drug-bound FIEL1 beads overnight. Beads were washed, and proteins were eluted and resolved on SDS-PAGE. The relative amounts of PIAS4 detected in the pull-downs was normalized to loading and quantified (n=2). FIG. 7D. MLE cells were exposed to BC-1480 or BC-1485 at various concentrations for 18 h. Cells were then collected and immunoblotted. FIGS. 7E-J. C57BL/6J mice were administered with bleomycin (0.05 U) for 7-21 days. Compounds BC-1480 and BC-1485 were given to mice through drinking water with an estimated dose of 5 mg/kg/d. Mice were euthanized, and lungs were lavaged with saline, harvested, and then homogenized. Lavage proteins, CXCL1, and total cell count were measured in FIGS. 7E-G. H. Survival studies of mice that were given bleomycin and compound treatments. Mice were carefully monitored over time; moribund, preterminal animals were immediately euthanized and recorded as deceased. Kaplan-Meier survival curves were generated using SPSS software (p<0.01 compared to Vehicle). Vehicle: n=24, BC-1480: n=13, BC-1485: n=12. FIG. 7I. Hydroxyproline contents were measured in lungs from 7, 14, and 21d after bleomycin challenge. FIG. 7J. Trichrome staining was performed on lung samples from E. Original magnification, ×10. *p<0.05 compared to Vehicle (t-test). Data are an average of two experiments (FIGS. 7E-J, 4-8 mice/group)
FIEL1 protein was HIS-purified from FIEL1 expression 293T cells using cobalt beads. Beads were then extensively washed prior to exposure to BC-1480 or BC-1485 at different concentrations (10^−4 to 100 μM). Purified recombinant PIAS4 protein was then incubated with drug-bound FIEL1 beads overnight. […] The relative amounts of PIAS4 detected in the pull-downs were normalized to loading and quantified.

CC(NC(=O)c1ccc(NS(=O)(=O)c2ccc3[nH]c(=O)[nH]c3c2)cc1)C(=O)N(C)C (centres unmarked) [BC-1485]
activity in disrupting the FIEL1/PIAS4 interaction compared to BC-1480 (10^−4 to 100 μM compound on FIEL1 beads, FIG. 7C): > 100 fold | inhibition of FIEL1 and PIAS4 interaction (FIG. 7): inhibition of FIEL1 and PIAS4 interaction

Source: patent US10968183B2, “Small molecule FIEL1 inhibitor in inflammatory and fibrotic lung injury” (UNIVERSITY OF PITTSBURGH—OF THE COMMONWEALTH SYSTEM OF …, priority 2015, dated 2021)
